Results as given in patent US20240270809A1, “ORAL GLP RECEPTOR AGONISTS” (priority 2020, published 2024).
Read-outs that look alike come from different tables or passages of the source. Positions of bridges follow the written chain, without caps; N, C: chain ends. Non-standard residues stand in square brackets, D forms with d. Residues, ends and D or L forms follow the SMILES beside them. *: point of attachment. Malonyl(2,2-Me2,histaminyl) = CC(C)(C(=O)NCCc1cnc[nH]1)C(=O)*; Ala(1H-tetrazol-5-yl) = N[C@@H](Cc1nnn[nH]1)C(=O)O; αMePhe(2-F) = C[C@](N)(Cc1ccccc1F)C(=O)O; αMeL = CC(C)C[C@](C)(N)C(=O)O; Nle = CCCC[C@H](N)C(=O)O; Aib = CC(C)(N)C(=O)O

Assays:
Assay type in all cases: cell-based
human GLP2 receptor = target: T1, human GLP2 receptor (Homo sapiens, UniProt O95838); experiment: cAMP accumulation assay, functional agonism of human GLP2 receptor; conditions: HEK cells infected with human GLP2 receptor BacMam virus, HTRF cAMP; for Emax: HEK293, read-out: Human GLP-2R agonist cAMP Emax; for EC50: read-out: Human GLP-2R agonist cAMP pEC50 (converted)
T1 construct: expressed in transfected cells; host or cells: HEK cells, BacMam virus transduction
T1 sequence (O95838 1-553): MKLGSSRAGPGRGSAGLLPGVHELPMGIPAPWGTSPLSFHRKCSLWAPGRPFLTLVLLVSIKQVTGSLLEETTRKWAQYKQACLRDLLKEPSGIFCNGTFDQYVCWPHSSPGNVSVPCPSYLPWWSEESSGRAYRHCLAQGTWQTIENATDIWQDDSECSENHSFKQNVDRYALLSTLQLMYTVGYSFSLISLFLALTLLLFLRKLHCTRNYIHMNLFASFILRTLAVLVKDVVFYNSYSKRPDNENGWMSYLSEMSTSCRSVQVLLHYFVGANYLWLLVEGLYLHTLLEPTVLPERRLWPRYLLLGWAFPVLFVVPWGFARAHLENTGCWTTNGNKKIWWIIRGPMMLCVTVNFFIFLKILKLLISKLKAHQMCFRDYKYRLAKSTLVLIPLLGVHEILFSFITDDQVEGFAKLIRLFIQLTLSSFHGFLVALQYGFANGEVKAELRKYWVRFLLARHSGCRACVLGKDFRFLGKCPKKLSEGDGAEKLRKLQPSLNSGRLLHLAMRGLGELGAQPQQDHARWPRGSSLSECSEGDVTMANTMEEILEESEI
How it was run: (§1)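 Agonist-driven cAMP production was quantified by homogeneous time-resolved fluorescence. Receptor expression in HEK cells came from a 24-hour BacMam infection, and cells were frozen ahead of the assay. Incubation lasted 45 min at 37° C in HBSS supplemented with 0.5 mM IBMX.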

human GLP1 receptor = target: T2, human GLP1 receptor (Homo sapiens, UniProt P43220); experiment: cAMP accumulation assay, functional agonism of human GLP1 receptor; conditions: HEK cells infected with human GLP1 receptor BacMam virus, HTRF cAMP; for Emax: HEK293, read-out: Human GLP-1R agonist cAMP Emax; for EC50: read-out: Human GLP-1R agonist cAMP pEC50 (converted)
T2 construct: expressed in transfected cells; host or cells: HEK cells, BacMam virus transduction
T2 sequence (P43220 24-463): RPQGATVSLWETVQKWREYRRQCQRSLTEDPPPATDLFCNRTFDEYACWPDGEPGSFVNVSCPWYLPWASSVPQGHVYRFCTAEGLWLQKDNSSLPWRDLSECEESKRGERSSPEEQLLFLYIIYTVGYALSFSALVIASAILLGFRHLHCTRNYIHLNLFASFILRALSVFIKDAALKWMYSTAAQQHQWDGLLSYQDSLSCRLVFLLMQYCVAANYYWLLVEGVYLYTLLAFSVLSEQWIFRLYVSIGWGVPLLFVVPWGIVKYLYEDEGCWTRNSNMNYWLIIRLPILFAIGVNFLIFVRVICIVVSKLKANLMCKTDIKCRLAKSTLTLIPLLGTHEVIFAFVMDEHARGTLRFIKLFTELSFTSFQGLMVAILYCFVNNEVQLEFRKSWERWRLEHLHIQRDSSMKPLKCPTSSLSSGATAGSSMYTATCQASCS
How it was run: as §1

mouse GLP2 receptor = target: T3, mouse GLP2 receptor (Mus musculus, UniProt Q5IXF8); experiment: cAMP accumulation assay, functional agonism of mouse GLP2 receptor
T3 construct: expressed in transfected cells; host or cells: HEK cells, transient transfection with GeneJuice
T3 sequence (Q5IXF8 1-512): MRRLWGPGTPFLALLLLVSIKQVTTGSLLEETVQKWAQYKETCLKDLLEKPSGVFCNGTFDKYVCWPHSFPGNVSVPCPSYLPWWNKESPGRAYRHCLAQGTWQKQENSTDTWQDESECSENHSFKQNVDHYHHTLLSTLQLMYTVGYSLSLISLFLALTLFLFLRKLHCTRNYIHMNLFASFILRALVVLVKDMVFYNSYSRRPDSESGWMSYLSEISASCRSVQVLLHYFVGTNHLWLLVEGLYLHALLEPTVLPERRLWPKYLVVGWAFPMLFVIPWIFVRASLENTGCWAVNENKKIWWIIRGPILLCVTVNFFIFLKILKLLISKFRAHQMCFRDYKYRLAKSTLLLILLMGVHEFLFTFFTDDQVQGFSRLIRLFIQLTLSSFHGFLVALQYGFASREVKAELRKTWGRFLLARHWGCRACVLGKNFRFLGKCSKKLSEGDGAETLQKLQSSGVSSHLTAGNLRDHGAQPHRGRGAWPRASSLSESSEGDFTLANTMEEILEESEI
Experimental: CAMP production upon agonist stimulation of mouse GLP2 or GLP1 receptors was assessed utilizing HiRange cAMP kit (Cisbio). In brief, HEK cells were transiently transfected for 24 hours with cDNA using GeneJuice Transfection reagent (EMD Millipore) and frozen at −80° C. for later use in the assay. On the day, various concentrations of compounds were dispensed using ECHO-555 (LabCyte) to a total volume of 100 nl into a low volume 384-well Proxi plate (Perkin Elmer) followed by addition of 10 μl of cell suspension delivering 8000 cells per well. Cells were prepared in the assay buffer (HBSS (Lonza) supplemented with 0.5 mM IBMX (Tocris)). After 45 min incubation at 37° C., the reaction was stopped by addition of the HTRF detection reagents in the lysis buffer provided in the kit. Following 1-hour incubation at RT, plates were read on Pherastar FS (BMG Labtech, Inc.) using standard HTRF settings. Dotmatics Studies software was used for calculation of pEC50 values by fitting data to a four-parameter concentration response curve.

[1] = HEK293, HEK cells transiently transfected with mouse GLP2 receptor, HTRF cAMP, read-out: Mouse GLP-2R agonist cAMP Emax
[2] = HEK cells transiently transfected with mouse GLP2 receptor, HTRF cAMP, read-out: Mouse GLP-2R agonist cAMP pEC50 (converted)

CCCC[C@@H]1NC(=O)[C@H](CCC(=O)O)NC(=O)[C@H](CC(=O)O)NC(=O)[C@@H](NC(=O)[C@H](Cc2ccccc2)NC(=O)[C@H](CO)NC(=O)CNC(=O)[C@H](CC(=O)O)NC(=O)C(C)(C)NC(=O)[C@@H](N)Cc2c[nH]cn2)CCC(=O)NCCCC[C@@H](C(=O)N[C@H]2CCC(=O)NCCCC[C@@H](C(=O)N[C@H]3CCC(=O)NCCCC[C@@H](C(=O)N[C@@H](CC(=O)O)C(=O)N[C@@H](Cc4ccccc4)C(=O)N[C@H](C(=O)N[C@H]4CCC(=O)NCCCC[C@@H](C(=O)N[C@H]5CCCCNC(=O)CC[C@@H](C(N)=O)NC(=O)[C@H]([C@@H](C)O)NC(=O)[C@H]([C@@H](C)CC)NC(=O)[C@H](CCCCN)NC5=O)NC(=O)[C@H]([C@@H](C)CC)NC(=O)[C@H](CC(C)C)NC(=O)[C@H](Cc5c[nH]c6ccccc56)NC4=O)[C@@H](C)CC)NC(=O)[C@H](C)NC(=O)[C@H](C)NC3=O)NC(=O)[C@H](CC(=O)O)NC(=O)[C@H](CC(C)C)NC(=O)[C@H]([C@@H](C)CC)NC2=O)NC1=O [Example 76] (H-H[Aib]DGSFEDE[Nle]KEILDKEAAKDFIEWLIKKKITE-NH2; lactam 7-11, 12-16, 17-20, 24-28, 29-33 (inferred))
Emax (human GLP2 receptor): 102% | EC50 (human GLP2 receptor): 0.0126 nM | Emax (human GLP1 receptor): 94.9% | EC50 (human GLP1 receptor): 1 nM | EC50 (mouse GLP2 receptor): 1.26 nM | Emax (mouse GLP2 receptor; HEK293, read-out: Mouse GLP-2R agonist cAMP Emax): 102%

CCCC[C@@H]1NC(=O)[C@H](CCC(=O)O)NC(=O)[C@@H](NC(=O)[C@H](CO)NC(=O)[C@](C)(Cc2ccccc2F)NC(=O)[C@H](CO)NC(=O)[C@@H](C)NC(=O)[C@H](CC(=O)O)NC(=O)C(C)(C)C(=O)NCCc2c[nH]cn2)CCCCNC(=O)C[C@@H](C(=O)N[C@@](C)(CC(C)C)C(=O)N[C@@H](CC(C)C)C(=O)N[C@@H](CC(=O)O)C(=O)N[C@H]2CCC(=O)NCCCC[C@@H](C(=O)N[C@@H](CC(=O)O)C(=O)N[C@@H](Cc3ccccc3)C(=O)N[C@H](C(=O)N[C@H]3CCC(=O)NCCCC[C@@H](C(=O)N[C@H]4CCC(=O)NCCCC[C@@H](C(N)=O)NC(=O)[C@H]([C@@H](C)O)NC(=O)[C@H]([C@@H](C)CC)NC(=O)[C@H](CCCCN)NC4=O)NC(=O)[C@H]([C@@H](C)CC)NC(=O)[C@H](CC(C)C)NC(=O)[C@H](Cc4c[nH]c5ccccc45)NC3=O)[C@@H](C)CC)NC(=O)[C@H](C)NC(=O)[C@H](C)NC(=O)[C@H](CCCCN)NC2=O)NC(=O)[C@@H](Cc2ccccc2)NC1=O [Example 50] ({Malonyl(2,2-Me2,histaminyl)}-D[dA]S[αMePhe(2-F)]SKE[Nle][dF]D[αMeL]LDEKAAKDFIEWLIKEKITK-NH2; lactam 6-10, 14-18, 22-26, 27-31 (inferred); C-terminus assumed)
Emax (human GLP2 receptor): 102% | EC50 (human GLP2 receptor): 0.0251 nM | Emax (human GLP1 receptor): 98.3% | EC50 (human GLP1 receptor): 0.1 nM | Emax (mouse GLP2 receptor; [1]): 81% | EC50 (mouse GLP2 receptor; [2]): 7.94 nM

CCCC[C@@H]1NC(=O)[C@H](CCC(=O)O)NC(=O)[C@@H](NC(=O)[C@H](CO)NC(=O)[C@](C)(Cc2ccccc2F)NC(=O)[C@H](CO)NC(=O)[C@@H](C)NC(=O)[C@H](CC(=O)O)NC(=O)C(C)(C)C(=O)NCCc2c[nH]cn2)CCCCNC(=O)C[C@@H](C(=O)N[C@H](C(=O)N[C@@H](CC(C)C)C(=O)N[C@@H](CC(=O)O)C(=O)N[C@H]2CCC(=O)NCCCC[C@@H](C(=O)N[C@@H](CC(=O)O)C(=O)N[C@@H](Cc3ccccc3)C(=O)N[C@H](C(=O)N[C@@H](CC(N)=O)C(=O)N[C@@H](Cc3c[nH]c4ccccc34)C(=O)N[C@@H](CC(C)C)C(=O)N[C@H](C(=O)N[C@@H](CCC(N)=O)C(=O)N[C@H]3CCC(=O)NCCCC[C@@H](C(N)=O)NC(=O)[C@H]([C@@H](C)O)NC(=O)[C@H]([C@@H](C)CC)NC(=O)[C@H](CCCCN)NC3=O)[C@@H](C)CC)[C@@H](C)CC)NC(=O)[C@H](C)NC(=O)[C@H](C)NC(=O)[C@H](CCCCN)NC2=O)[C@@H](C)CC)NC(=O)[C@@H](Cc2ccccc2)NC1=O [Example 26] ({Malonyl(2,2-Me2,histaminyl)}-D[dA]S[αMePhe(2-F)]SKE[Nle][dF]DILDEKAAKDFINWLIQEKITK-NH2; lactam 6-10, 14-18, 27-31 (inferred); C-terminus assumed)
Emax (human GLP2 receptor): 103% | EC50 (human GLP2 receptor): 0.0158 nM | Emax (human GLP1 receptor): 97.1% | EC50 (human GLP1 receptor): 0.158 nM | Emax (mouse GLP2 receptor; [1]): 86.4% | EC50 (mouse GLP2 receptor; [2]): 3.16 nM

CCCC[C@H](NC(=O)[C@H](CCC(=O)O)NC(=O)[C@@H]1CC(=O)NCCCC[C@H](NC(=O)[C@H](Cc2nn[nH]n2)NC(=O)C(C)(C)C(=O)NCCc2c[nH]cn2)C(=O)N[C@@H](CO)C(=O)N[C@@H](Cc2ccccc2)C(=O)N[C@@H](CO)C(=O)N1)C(=O)N[C@H](Cc1ccccc1)C(=O)N[C@H]1CCCCNC(=O)C[C@@H](C(=O)N[C@@H](CCCCN)C(=O)N[C@@H](C)C(=O)N[C@@H](C)C(=O)NC(C)(C)C(=O)N[C@@H](CC(=O)O)C(=O)N[C@@H](Cc2ccccc2)C(=O)N[C@H](C(=O)N[C@H]2CCC(=O)NCCCC[C@@H](C(=O)N[C@H]3CCC(=O)NCCCC[C@@H](C(N)=O)NC(=O)[C@H]([C@@H](C)O)NC(=O)[C@H]([C@@H](C)CC)NC(=O)[C@H](CCCCN)NC3=O)NC(=O)[C@H]([C@@H](C)CC)NC(=O)[C@H](CC(C)C)NC(=O)[C@H](Cc3c[nH]c4ccccc34)NC2=O)[C@@H](C)CC)NC(=O)[C@H](CC(=O)O)NC(=O)[C@H](CC(C)C)NC(=O)[C@H]([C@@H](C)CC)NC1=O [Example 42] ({Malonyl(2,2-Me2,histaminyl)}-[Ala(1H-tetrazol-5-yl)]KSFSDE[Nle][dF]KILDDKAA[Aib]DFIEWLIKEKITK-NH2; lactam 2-6, 10-14, 22-26, 27-31; C-terminus assumed)
Emax (human GLP2 receptor): 96.4% | EC50 (human GLP2 receptor): 0.398 nM | Emax (human GLP1 receptor): 94.1% | EC50 (human GLP1 receptor): 0.2 nM

CCCC[C@H](NC(=O)[C@H](CCC(=O)O)NC(=O)[C@@H]1CC(=O)NCCCC[C@H](NC(=O)[C@H](CCC(N)=O)NC(=O)C(C)(C)NC(=O)[C@@H](N)Cc2c[nH]cn2)C(=O)N[C@@H](CO)C(=O)N[C@@H](Cc2ccccc2)C(=O)N[C@@H](CO)C(=O)N1)C(=O)N[C@H](Cc1ccccc1)C(=O)N[C@H](C(=O)N[C@@](C)(CC(C)C)C(=O)N[C@@H](CC(C)C)C(=O)N[C@@H](CC(=O)O)C(=O)N[C@H]1CCC(=O)NCCCC[C@@H](C(=O)N[C@@H](CC(=O)O)C(=O)N[C@@H](Cc2ccccc2)C(=O)N[C@H](C(=O)N[C@H]2CCC(=O)NCCCC[C@@H](C(=O)N[C@H]3CCC(=O)NCCCC[C@@H](C(N)=O)NC(=O)[C@H]([C@@H](C)O)NC(=O)[C@H]([C@@H](C)CC)NC(=O)[C@H](CCCCN)NC3=O)NC(=O)[C@H]([C@@H](C)CC)NC(=O)[C@H](CC(C)C)NC(=O)[C@H](Cc3c[nH]c4ccccc34)NC2=O)[C@@H](C)CC)NC(=O)[C@H](C)NC(=O)[C@H](C)NC(=O)[C@H](CCCCN)NC1=O)[C@@H](C)O [Example 63] (H-H[Aib]QKSFSDE[Nle][dF]T[αMeL]LDEKAAKDFIEWLIKEKITK-NH2; lactam 4-8, 16-20, 24-28, 29-33 (inferred); C-terminus assumed)
Emax (human GLP2 receptor): 99.7% | EC50 (human GLP2 receptor): 0.1 nM | Emax (human GLP1 receptor): 96.9% | EC50 (human GLP1 receptor): 1 nM
